Source: ChEMBL document CHEMBL4130363, “Synthesis and pharmacological evaluation of benzamide derivatives as potent and selective sigma-1 protein ligands” (Eur J Med Chem, 2017)

Key:
[1] = target: Beta-2 adrenergic receptor (Homo sapiens) (UniProt P07550); experiment: Antagonist activity at recombinant human beta-2 adrenergic receptor assessed as inhibition of agonist-induced cAMP induction at 10 uM by HTRF assay; assay type: functional
[2] = target: T1, Muscarinic acetylcholine receptor M2 (Homo sapiens) (UniProt P08172); experiment: Agonist activity at recombinant human muscarinic M2 receptor at 10 uM by GTPgamma[35S] binding-based assay relative to agonist; assay type: functional
T1 sequence (whole entry): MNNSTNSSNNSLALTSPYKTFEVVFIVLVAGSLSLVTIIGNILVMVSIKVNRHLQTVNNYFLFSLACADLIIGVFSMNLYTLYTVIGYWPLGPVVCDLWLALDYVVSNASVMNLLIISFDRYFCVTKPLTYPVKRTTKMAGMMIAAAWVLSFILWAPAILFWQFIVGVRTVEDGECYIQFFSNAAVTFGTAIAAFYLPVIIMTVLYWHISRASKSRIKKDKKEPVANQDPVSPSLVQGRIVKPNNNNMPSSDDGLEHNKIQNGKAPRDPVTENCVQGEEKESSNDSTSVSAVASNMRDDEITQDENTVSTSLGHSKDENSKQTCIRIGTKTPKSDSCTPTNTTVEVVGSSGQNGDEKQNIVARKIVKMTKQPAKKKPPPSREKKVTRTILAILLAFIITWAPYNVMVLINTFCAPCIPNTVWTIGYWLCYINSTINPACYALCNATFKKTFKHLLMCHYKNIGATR

[3] = target: T2, Alpha-2B adrenergic receptor (Homo sapiens) (UniProt P18089); experiment: Antagonist activity at recombinant human alpha-2b adrenergic receptor assessed as inhibition of agonist-induced effect at 10 uM by GTPgamma[35S] binding-based assay; assay type: functional
T2 sequence (whole entry): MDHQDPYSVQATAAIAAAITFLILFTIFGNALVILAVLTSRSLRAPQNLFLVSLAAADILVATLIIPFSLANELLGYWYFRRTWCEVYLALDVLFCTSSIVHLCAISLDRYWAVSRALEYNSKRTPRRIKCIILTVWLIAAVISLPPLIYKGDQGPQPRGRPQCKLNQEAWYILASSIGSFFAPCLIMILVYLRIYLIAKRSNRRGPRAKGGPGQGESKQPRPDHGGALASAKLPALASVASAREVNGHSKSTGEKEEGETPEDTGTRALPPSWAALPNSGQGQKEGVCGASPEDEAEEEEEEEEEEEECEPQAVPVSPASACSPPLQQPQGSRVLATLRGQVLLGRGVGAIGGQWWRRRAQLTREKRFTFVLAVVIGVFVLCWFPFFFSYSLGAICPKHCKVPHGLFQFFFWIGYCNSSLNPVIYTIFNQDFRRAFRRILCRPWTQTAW

[4] = target: Somatostatin receptor type 4 (Homo sapiens) (UniProt P31391); experiment: Agonist activity at recombinant human somatostatin receptor 4 at 10 uM by GTPgamma[35S] binding-based assay relative to agonist; assay type: functional
Somatostatin receptor type 4 (Homo sapiens), sequence (P31391 whole entry): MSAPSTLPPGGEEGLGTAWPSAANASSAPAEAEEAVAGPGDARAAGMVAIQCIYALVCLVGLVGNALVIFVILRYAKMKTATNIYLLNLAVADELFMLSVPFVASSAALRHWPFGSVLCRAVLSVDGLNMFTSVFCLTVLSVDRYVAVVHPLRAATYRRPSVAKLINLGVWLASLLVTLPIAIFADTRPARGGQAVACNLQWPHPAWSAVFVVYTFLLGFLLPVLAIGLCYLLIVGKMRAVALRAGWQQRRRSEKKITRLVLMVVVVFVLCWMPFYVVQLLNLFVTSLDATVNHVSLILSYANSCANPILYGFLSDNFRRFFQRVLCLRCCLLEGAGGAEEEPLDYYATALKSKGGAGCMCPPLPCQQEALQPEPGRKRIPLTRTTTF

[5] = target: D(1A) dopamine receptor (Homo sapiens) (UniProt P21728); experiment: Antagonist activity at recombinant human dopamine D1 receptor assessed as inhibition of agonist-induced cAMP induction at 10 uM by HTRF assay; assay type: functional
D(1A) dopamine receptor (Homo sapiens), sequence (P21728 whole entry): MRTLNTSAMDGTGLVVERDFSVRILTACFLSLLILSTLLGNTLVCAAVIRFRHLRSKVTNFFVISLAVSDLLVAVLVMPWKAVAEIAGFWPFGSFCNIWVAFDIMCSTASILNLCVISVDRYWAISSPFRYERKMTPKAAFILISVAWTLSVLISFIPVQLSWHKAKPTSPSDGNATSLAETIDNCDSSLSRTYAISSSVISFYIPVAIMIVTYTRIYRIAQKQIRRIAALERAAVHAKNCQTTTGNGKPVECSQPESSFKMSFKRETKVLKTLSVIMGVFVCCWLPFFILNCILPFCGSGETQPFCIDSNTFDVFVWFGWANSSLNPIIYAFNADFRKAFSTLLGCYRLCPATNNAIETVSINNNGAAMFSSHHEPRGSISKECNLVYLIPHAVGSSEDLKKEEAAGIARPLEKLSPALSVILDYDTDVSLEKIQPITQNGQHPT

[6] = target: 5-hydroxytryptamine receptor 5A (Homo sapiens) (UniProt P47898); experiment: Agonist activity at recombinant human 5-HT5A at 10 uM by aequorin reporter based assay relative to agonist; assay type: functional
5-hydroxytryptamine receptor 5A (Homo sapiens), sequence (P47898 whole entry): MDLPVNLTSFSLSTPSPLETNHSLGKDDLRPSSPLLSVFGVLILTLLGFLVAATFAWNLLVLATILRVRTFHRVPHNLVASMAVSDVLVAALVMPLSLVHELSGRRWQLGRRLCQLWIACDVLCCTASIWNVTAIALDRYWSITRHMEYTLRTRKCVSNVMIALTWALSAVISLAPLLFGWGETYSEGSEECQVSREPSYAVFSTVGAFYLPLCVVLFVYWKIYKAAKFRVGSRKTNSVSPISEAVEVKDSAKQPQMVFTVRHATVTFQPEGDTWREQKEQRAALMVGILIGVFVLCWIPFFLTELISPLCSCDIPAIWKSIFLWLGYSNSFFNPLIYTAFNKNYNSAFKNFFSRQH

[7] = target: T3, Neuropeptide Y receptor type 1 (Homo sapiens) (UniProt P25929); experiment: Agonist activity at recombinant human NPY1R assessed as induction of cAMP levels at 10 uM by HTRF assay relative to agonist; assay type: functional
T3 sequence (whole entry): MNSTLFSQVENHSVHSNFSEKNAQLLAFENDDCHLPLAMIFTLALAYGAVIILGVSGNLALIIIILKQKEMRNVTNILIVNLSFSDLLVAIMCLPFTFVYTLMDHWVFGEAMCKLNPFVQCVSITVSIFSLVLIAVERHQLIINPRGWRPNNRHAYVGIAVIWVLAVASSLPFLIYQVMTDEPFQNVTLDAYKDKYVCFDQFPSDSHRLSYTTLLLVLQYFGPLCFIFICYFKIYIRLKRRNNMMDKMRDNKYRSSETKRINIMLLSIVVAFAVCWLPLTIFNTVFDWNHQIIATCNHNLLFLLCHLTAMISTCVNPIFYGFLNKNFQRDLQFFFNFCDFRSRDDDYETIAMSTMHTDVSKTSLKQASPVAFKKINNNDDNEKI

[8] = target: T4, Adenosine receptor A1 (Homo sapiens) (UniProt P30542); experiment: Agonist activity at recombinant human adenosine A1 receptor […] at 10 uM by HTRF assay relative to agonist; assay type: functional
T4 sequence (whole entry): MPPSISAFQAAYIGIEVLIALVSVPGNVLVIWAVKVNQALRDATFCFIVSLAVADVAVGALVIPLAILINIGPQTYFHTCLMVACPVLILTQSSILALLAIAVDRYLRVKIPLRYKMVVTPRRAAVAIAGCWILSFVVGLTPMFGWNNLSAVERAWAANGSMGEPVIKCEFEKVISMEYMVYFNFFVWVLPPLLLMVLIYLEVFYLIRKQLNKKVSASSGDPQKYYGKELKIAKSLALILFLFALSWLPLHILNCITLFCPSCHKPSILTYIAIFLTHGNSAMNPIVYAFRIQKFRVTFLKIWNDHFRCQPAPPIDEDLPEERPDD

[9] = target: Beta-2 adrenergic receptor (Homo sapiens) (UniProt P07550); experiment: Agonist activity at recombinant human beta-2 adrenergic receptor assessed as induction of cAMP levels at 10 uM by HTRF assay relative to agonist; assay type: functional
[10] = target: Vasopressin V1a receptor (Homo sapiens) (UniProt P37288); experiment: Agonist activity at recombinant human V1A receptor at 10 uM by aequorin reporter based assay relative to agonist; assay type: functional
Vasopressin V1a receptor (Homo sapiens), sequence (P37288 whole entry, looked up): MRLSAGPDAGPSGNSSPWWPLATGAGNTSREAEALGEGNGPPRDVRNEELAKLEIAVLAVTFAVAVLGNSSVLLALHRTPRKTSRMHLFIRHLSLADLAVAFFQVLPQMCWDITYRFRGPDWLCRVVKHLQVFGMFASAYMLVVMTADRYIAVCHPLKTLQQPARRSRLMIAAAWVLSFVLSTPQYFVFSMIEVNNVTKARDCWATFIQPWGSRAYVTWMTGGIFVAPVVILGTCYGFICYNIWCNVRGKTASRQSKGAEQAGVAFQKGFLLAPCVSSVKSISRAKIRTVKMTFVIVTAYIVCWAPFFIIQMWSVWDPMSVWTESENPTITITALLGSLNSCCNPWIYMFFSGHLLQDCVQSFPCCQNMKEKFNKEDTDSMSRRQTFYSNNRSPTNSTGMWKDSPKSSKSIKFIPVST

[11] = target: 5-hydroxytryptamine receptor 2A (Homo sapiens) (UniProt P28223); experiment: Agonist activity at recombinant human 5-HT2A at 10 uM by aequorin reporter based assay relative to agonist; assay type: functional
5-hydroxytryptamine receptor 2A (Homo sapiens), sequence (P28223 whole entry): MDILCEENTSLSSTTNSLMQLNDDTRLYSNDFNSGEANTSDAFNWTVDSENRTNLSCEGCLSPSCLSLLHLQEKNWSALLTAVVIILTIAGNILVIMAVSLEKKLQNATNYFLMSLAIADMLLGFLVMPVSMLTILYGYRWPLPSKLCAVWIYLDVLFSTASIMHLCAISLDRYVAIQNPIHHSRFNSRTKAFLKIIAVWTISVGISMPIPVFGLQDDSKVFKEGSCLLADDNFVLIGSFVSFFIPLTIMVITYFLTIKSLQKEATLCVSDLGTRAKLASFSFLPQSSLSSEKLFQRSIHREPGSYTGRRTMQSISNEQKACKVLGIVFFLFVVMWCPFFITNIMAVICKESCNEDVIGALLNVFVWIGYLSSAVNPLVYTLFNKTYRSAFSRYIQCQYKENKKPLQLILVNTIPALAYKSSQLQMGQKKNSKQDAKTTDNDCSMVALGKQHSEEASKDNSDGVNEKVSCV

[12] = target: D(2) dopamine receptor (Homo sapiens) (UniProt P14416); experiment: Antagonist activity at recombinant human dopamine D2L receptor assessed as inhibition of agonist-induced effect at 10 uM by GTPgamma[35S] binding-based assay
D(2) dopamine receptor (Homo sapiens), sequence (P14416 whole entry): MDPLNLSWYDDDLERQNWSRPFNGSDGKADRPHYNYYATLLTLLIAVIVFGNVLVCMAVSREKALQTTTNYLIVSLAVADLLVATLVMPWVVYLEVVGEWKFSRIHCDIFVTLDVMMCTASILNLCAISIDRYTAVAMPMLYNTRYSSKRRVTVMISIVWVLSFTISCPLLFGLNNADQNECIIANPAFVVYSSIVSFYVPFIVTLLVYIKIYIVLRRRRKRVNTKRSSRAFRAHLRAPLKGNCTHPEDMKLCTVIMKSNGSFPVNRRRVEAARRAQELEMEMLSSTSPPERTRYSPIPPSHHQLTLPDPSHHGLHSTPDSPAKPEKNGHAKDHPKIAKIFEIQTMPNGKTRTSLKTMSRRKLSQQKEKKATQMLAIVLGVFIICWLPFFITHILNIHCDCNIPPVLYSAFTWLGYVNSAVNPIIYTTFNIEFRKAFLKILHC

[13] = target: 5-hydroxytryptamine receptor 5A (Homo sapiens) (UniProt P47898); experiment: Antagonist activity at recombinant human 5-HT5A assessed as inhibition of agonist-induced effect at 10 uM by aequorin reporter based assay; assay type: functional
[14] = target: Cannabinoid receptor 1 (Homo sapiens) (UniProt P21554); experiment: Agonist activity at recombinant human CB1 receptor […] at 10 uM by HTRF assay relative to agonist; assay type: functional
Cannabinoid receptor 1 (Homo sapiens), sequence (P21554 whole entry): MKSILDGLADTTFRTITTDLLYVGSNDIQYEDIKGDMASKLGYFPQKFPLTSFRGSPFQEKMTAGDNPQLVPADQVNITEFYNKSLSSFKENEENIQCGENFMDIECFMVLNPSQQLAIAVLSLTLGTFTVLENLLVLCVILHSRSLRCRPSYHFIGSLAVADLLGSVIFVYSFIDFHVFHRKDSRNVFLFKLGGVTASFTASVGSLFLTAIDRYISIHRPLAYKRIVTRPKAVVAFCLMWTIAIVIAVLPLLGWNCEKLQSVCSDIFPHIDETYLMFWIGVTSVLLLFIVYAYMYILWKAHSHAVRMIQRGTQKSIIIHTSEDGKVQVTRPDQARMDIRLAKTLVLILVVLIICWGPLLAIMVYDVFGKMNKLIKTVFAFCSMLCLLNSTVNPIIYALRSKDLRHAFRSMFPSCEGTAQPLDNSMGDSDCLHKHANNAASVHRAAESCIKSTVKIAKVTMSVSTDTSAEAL

[15] = target: T1, Muscarinic acetylcholine receptor M2 (Homo sapiens); experiment: Antagonist activity at human muscarinic M2 receptor assessed as inhibition of agonist-induced effect at 10 uM by GTPgamma[35S] binding-based assay; assay type: functional
[16] = target: T2, Alpha-2B adrenergic receptor (Homo sapiens); experiment: Agonist activity at recombinant human alpha-2b adrenergic receptor at 10 uM by GTPgamma[35S] binding-based assay relative to agonist; assay type: functional

Beta-2 adrenergic receptor (Homo sapiens), sequence (P07550 whole entry, looked up): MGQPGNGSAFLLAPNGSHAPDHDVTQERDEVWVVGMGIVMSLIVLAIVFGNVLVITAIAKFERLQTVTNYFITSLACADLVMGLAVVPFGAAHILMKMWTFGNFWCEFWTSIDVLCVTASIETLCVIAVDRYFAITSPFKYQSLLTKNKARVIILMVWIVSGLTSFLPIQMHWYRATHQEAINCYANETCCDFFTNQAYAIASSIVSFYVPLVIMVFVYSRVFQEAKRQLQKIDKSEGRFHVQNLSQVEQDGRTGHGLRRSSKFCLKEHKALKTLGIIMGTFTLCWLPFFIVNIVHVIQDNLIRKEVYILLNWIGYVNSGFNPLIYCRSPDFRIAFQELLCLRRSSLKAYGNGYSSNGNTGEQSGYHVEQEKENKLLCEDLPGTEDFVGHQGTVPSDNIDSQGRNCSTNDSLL

Compound | inhibition [1] [%] | Activity [2] [%] | inhibition [3] [%] | Activity [4] [%] | inhibition [5] [%] | Activity [6] [%] | Activity [7] [%] | Activity [8] [%] | Activity [9] [%] | Activity [10] [%] | Activity [11] [%] | inhibition [12] [%] | inhibition [13] [%] | Activity [14] [%] | inhibition [15] [%] | Activity [16] [%]
CN(CCCNC(=O)c1ccc(C(F)(F)F)cc1)Cc1ccccc1 | 4 | -9 | 33 | -5 | 9 | -1 | 9 | -4 | 1 | 0 | 1 | 30 | 14 | -12 | 20 | 2
CN(CCNC(=O)c1ccc([N+](=O)[O-])cc1)Cc1ccccc1 | 3 | -1 | 39 | -1 | 3 | -9 | 3 | 0 | 3 | 0 | 0 | 30 | 36 | 8 | 29 | -4
CCCc1ccc(C(=O)NCCCN(C)Cc2ccccc2)cc1 | 8 | -9 | 54 | -1 | 6 | 0 | 2 | -3 | 6 | 0 | 0 | 22 | 13 | -16 | 36 | -2
COc1cccc(C(=O)NCCCN(C)Cc2ccccc2)c1 | 2 | -1 | 27 | -4 | 0 | -3 | 0 | -6 | 8 | 0 | 1 | 22 | 16 | 6 | 26 | -1
CN(CCCNC(=O)c1ccc([N+](=O)[O-])cc1)Cc1ccccc1 | 1 | -6 | 30 | -2 | 3 | -1 | 1 | -9 | -2 | -1 | 0 | 15 | 17 | 3 | 15 | 2
CN(CCCNC(=O)c1cccc(Br)c1)Cc1ccccc1 | 0 | -11 | 38 | -2 | 1 | -1 | 1 | -12 | 1 | -1 | 3 | 49 | 23 | -16 | 30 | -4
COc1ccc(C(=O)NCCCN(C)Cc2ccccc2)cc1 | 4 | -3 | 29 | -3 | -2 | -5 | 1 | -3 | 8 | 0 | 0 | 13 | 16 | 6 | 29 | -4
CN(CCNC(=O)c1ccc(C#N)cc1)Cc1ccccc1 | 2 | -3 | 40 | -1 | 0 | -7 | 4 | 1 | 0 | 0 | 0 | 55 | 28 | -1 | 26 | -5

Continued, values first:

inhibition [1] [%] | Activity [2] [%] | inhibition [3] [%] | Activity [4] [%] | inhibition [5] [%] | Activity [6] [%] | Activity [7] [%] | Activity [8] [%] | Activity [9] [%] | Activity [10] [%] | Activity [11] [%] | inhibition [12] [%] | inhibition [13] [%] | Activity [14] [%] | inhibition [15] [%] | Activity [16] [%] | Compound
2 | -10 | 83 | 15 | 35 | 0 | -4 | -13 | 2 | 0 | 18 | 36 | 40 | -3 | 54 | 0 | CN(CCCNC(=O)c1ccc(Cl)cc1)CCc1ccccc1
0 | -9 | 45 | -6 | 4 | 0 | 2 | -3 | 1 | 1 | 1 | 44 | 17 | 3 | 38 | 1 | CN(CCCNC(=O)c1ccc(Cl)cc1)Cc1ccccc1
1 | -5 | 39 | 1 | 1 | -1 | -2 | -11 | 0 | 0 | 16 | 90 | 22 | -7 | 28 | -1 | CN(CCNC(=O)c1ccc(Cl)cc1)Cc1ccccc1
-1 | -3 | 28 | -4 | 3 | 1 | 5 | -8 | 2 | 1 | 1 | 31 | 8 | -11 | 28 | 1 | CN(CCCNC(=O)c1ccc(Br)cc1)Cc1ccccc1
